Counter-ions that a name gives are not always drawn. Like-named read-outs stand apart in the source and are kept apart here.
How the values were obtained:
[1] = system: LTB4 production in human whole blood (LTA4 hydrolase); test: LTB4 production by calcium ionophore stimulated human blood; format: cell-based; details: read-out: Inhibition of Calcium Ionophore-Induced LTB4 Production in Human Blood IC50 HWB
Protocol: LTB4 and Thromboxane Production by Calcium Ionophore Stimulated Human Blood for LTA4 Hydrolase Inhibitor Activity
One or more concentrations of the leukotriene A4 hydrolase inhibitor compounds being tested were prepared (diluted in DMSO) and 2 μl added and gently mixed with the diluted whole blood. After incubating for 15 minutes at 37° C. in a humidified incubator, calcium ionophore A23187 (Sigma Chemical Co., St. Louis, Mo.) was added to a final concentration of 20 mcg/ml and the incubation continued under the same conditions for an additional 10 minutes to allow LTB4 formation. The reaction was terminated by centrifugation (833 g, 10 minutes at 4° C.) and supernatant were analyzed for LTB4 and thromboxane by commercially available enzyme-linked immunoassays (Caymen Chemical Co., Ann Arbor, Mich.) according to the manufacturer's instructions. The IC50 of each test compound was determined from the amount of inhibition of LTB4 production as compared to an essentially identical assay in which no inhibitor compound was present.

[2] = system: LTB4 production in mouse blood (LTA4 hydrolase); test: Ex vivo LTB4 production by calcium ionophore stimulated mouse blood after oral dosing; format: in vivo
Protocol: Ex Vivo LTB4 and Thromboxane Production by Calcium Ionophore Stimulated Mouse Blood for LTA4 Hydrolase Inhibitor Activity
Leukotriene A4 hydrolase inhibitor compounds of the present invention were diluted to a predetermined concentration in phosphate buffered saline containing 2% DMSO and 1% Tween 80. The compounds were administered by oral gavage to adult male outbred mice weighing approximately 20-30 gm at a dose of 10 mg/kg body weight. (Compounds given at a dose of 50 mg/kg body weight are designtated in following Table by the symbol, *.) Sixty (60) minutes after administration of an LTA4 inhibitor compound of the invention, blood was collected (into heparin-containing tubes) from the retroorbital sinus. […] The mixture was incubated for 10 minutes at 37° C. in a humidified incubator. The reaction was terminated by centrifugation (833 g, 10 minutes at 4° C.). Supernatants were analyzed for LTB4 and thromboxane by commercially available enzyme-linked immunoassays (Caymen Chemical Co., Ann Arbor, Mich.] in accordance with the manufacturer's instructions. The percent inhibition was determined by comparison to animals treated identically except that the solution admininstered by oral gavage was devoid of inhibitor compound.

[3] = biological target: T1, recombinant human LTA4 hydrolase (rhLTA4H) (Homo sapiens, UniProt P09960); test: Recombinant human LTA4 hydrolase assay for LTA4 hydrolase inhibitor activity
T1 sequence (P09960 1-611): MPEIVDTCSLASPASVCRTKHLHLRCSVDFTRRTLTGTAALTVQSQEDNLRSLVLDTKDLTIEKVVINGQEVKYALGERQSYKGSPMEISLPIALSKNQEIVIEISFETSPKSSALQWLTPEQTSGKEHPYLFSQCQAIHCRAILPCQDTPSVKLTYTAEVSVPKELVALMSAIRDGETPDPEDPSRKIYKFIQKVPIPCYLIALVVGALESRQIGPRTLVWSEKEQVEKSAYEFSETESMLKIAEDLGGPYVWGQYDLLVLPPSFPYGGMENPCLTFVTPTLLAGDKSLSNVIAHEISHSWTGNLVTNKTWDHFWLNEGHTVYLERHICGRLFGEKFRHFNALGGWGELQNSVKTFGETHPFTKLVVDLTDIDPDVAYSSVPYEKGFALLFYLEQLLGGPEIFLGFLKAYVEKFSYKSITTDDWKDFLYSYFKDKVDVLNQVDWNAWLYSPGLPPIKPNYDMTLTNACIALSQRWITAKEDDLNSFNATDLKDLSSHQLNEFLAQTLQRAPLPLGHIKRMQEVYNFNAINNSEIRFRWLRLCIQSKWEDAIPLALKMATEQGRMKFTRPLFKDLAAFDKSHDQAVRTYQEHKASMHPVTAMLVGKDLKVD

[4] = Homo sapiens, human whole blood, A23187
[5] = mouse, oral gavage, 1 hour after administration of 10 mg/kg, read-out: Murine Ex Vivo LTB4 Inhibition % I LTB4
[6] = Recombinant Human LTA4 Hydrolase Assay IC50 LTA4H, recombinant hLTA4H
[7] = Mus musculus, po, 1 h, read-out: Murine Ex Vivo LTB4 Inhibition % I LTB4

SMILES | IC50 [1, 4] [µM] | inhibition in vivo at 10 mg/kg [2, 5] [%] | IC50 [3, 6] [µM] | also measured
c1ccc(Cc2ccc(OCCn3cnc4cnccc43)cc2)cc1 [340 B] | 0.33 | 64 | 0.12 | –
c1ccc(Oc2ccc(OCCCn3cnc4cnccc43)cc2)cc1 [351 B] | 2.08 | 71 | 0.29 | –
c1ccc(Cc2ccc3c(c2)CC(Cn2cnc4ccncc42)O3)cc1 (stereo not drawn) [358 A] | – | – | 1.55 | IC50 ([1]; human whole blood, A23187): 0.152 µM
c1ccc(Cc2ccc(OCCN3CCCC3)cc2)cc1 [Example 45, 1-[2-(4-phenylmethyl)phenoxyethyl]pyrrolidine] | – | – | – | IC50 ([1]; human whole blood, A23187): 0.116 µM; inhibition in vivo at 10 mg/kg [2, 7]: 35%
C(=C\c1ccc(OCCN2CCCC2)cc1)/c1ccccc1 [Example 46, 1-[2-[4-(2-phenylethenyl)phenoxy]ethyl]pyrrolidine] | 1.5 | 13 | – | –
c1ccc(Cc2cnc(OCCN3CCCC3)s2)cc1 [Example 76] | 3.5 | – | – | –
Clc1cc(Cc2ccccc2)ccc1OCCN1CCCC1 [Example 113] | 2.01 | – | – | –
Fc1cc(Cc2ccccc2)ccc1OCCN1CCCC1 [Example 115] | 0.19 | – | – | –
Fc1cc(OCCN2CCCC2)ccc1Cc1ccccc1 [Example 116] | 1.09 | 18 | – | –
COc1cccc(Cc2ccc(OCCN3CCCC3)cc2)c1 [Example 127] | 2.48 | – | – | –
COc1ccc(Cc2ccc(OCCN3CCCC3)cc2)cc1 [Example 128] | 0.89 | 74 | – | –
Clc1ccc(Cc2ccc(OCCN3CCCC3)cc2)cc1 [Example 140] | 1.01 | 15 | – | –
COC(=O)[C@@H]1CCCN1CCOc1ccc(Cc2ccccc2)cc1 [Example 225, Methyl 1-[2-[4-(Phenylmethyl)phenoxy]ethyl]-2S-pyrrolidine-2-carboxylate, monohydrochloride, hydrate] | – | – | – | IC50 ([1]; Homo sapiens): 1.86 µM
CC(=O)NC1CCN(CCOc2ccc(Cc3ccccc3)cc2)C1 (stereo not drawn) [Example 227] | – | – | – | IC50 ([1]; human whole blood, A23187): 0.42 µM; Murine Ex Vivo LTB4 Inhibition % I LTB4 ([2]; mouse, oral gavage, 1 hour after administration of 10 mg/kg): 23%
COC(=O)C1CCCN1CCOc1ccc(Cc2ccccc2)cc1 (stereo not drawn) [Example 237] | – | – | 0.45 | IC50 ([1]; Homo sapiens): 1.86 µM
CC(=O)NC1CCN(CCOc2ccc(Cc3ccccc3)cc2)CC1 [Example 238] | 0.18 | 49 | – | –
CC(=O)NC1CCN(CCOc2ccc(Cc3ccccc3)cc2)C1 (stereo not drawn) [Example 256] | 0.42 | 23 | – | –
CCOC(=O)CNCCCOc1ccc(Cc2ccccc2)cc1 [Example 264] | 1.1 | – | – | inhibition in vivo at 50 mg/kg ([2]; mouse, oral gavage, 1 hour after administration of 50 mg/kg (*), read-out: Murine Ex Vivo LTB4 Inhibition % I LTB4): 87%
CCOC(=O)CCNCCCCOc1ccc(Cc2ccccc2)cc1 [Example 272] | 0.076 | 97 | – | –
CCOC(=O)CC1CCN(CCOc2ccc(Oc3ccccc3)cc2)CC1 [Example 300] | – | – | 5 | IC50 ([1]; human whole blood, A23187): 2.51 µM
CCOC(=O)CNCCCCOc1ccc(Cc2ccccc2)cc1 [Example 320] | 0.354 | 85 | – | –
CCOC(=O)CNCCCCCOc1ccc(Cc2ccccc2)cc1 [Example 321] | 0.421 | 87 | – | –
COC(=O)CCNCCOc1ccc(Cc2ccccc2)cc1 [Example 324] | 0.586 | 62 | – | –
CCOC(=O)C1C2CN(CCOc3ccc(Cc4ccccc4)cc3)CC21 (stereo not drawn) [Example 325] | – | – | 20 | IC50 ([1]; human whole blood, A23187): 2.4 µM
COC(=O)CCN(C)CCCOc1ccc(Cc2cccs2)cc1 [Example 331] | 0.095 | 97 | – | –
c1ccc(Cc2ccc(OCCN3CCCCCC3)cc2)cc1 [Example 397] | – | – | – | IC50 ([1]; Homo sapiens): 0.12 µM; IC50 ([3]; read-out: Recombinant Human LTA4 Hydrolase Assay IC50 LTA4H): 0.037 µM

SMILES | IC50 [1, 4] [µM] | inhibition in vivo at 10 mg/kg [2, 5] [%] | IC50 [3, 6] [µM] | also measured
CCC(CN1CCCC1)Oc1ccc(Cc2ccccc2)cc1 (stereo not drawn) [Example 405] | – | 49 | 0.42 | –
c1ccc(Cc2ccc(OC(Cc3ccccc3)CN3CCCC3)cc2)cc1 (stereo not drawn) [Example 406] | – | 46 | 0.5 | –
C#CC(CC(=O)OCC)NCCCOc1ccc(Cc2ccccc2)cc1 (stereo not drawn) [Example 407] | – | 0 | 20 | –
COC(=O)CCN(C)CCCOc1ccc(Cc2ccccc2)cc1 [Example 413] | – | 86 | 0.043 | –
CC(C)(O)CCNCCCOc1ccc(Cc2ccccc2)cc1 [Example 416] | – | 31 | 0.41 | –
NNC(=O)C1CCN(CCOc2ccc(Cc3ccccc3)cc2)CC1 [Example 419] | – | 90 | 0.047 | –
CNC(=O)CCNCCCOc1ccc(Cc2ccccc2)cc1 [Example 422] | – | 37 | 0.1 | –
O=C(CCNCCCOc1ccc(Cc2ccccc2)cc1)N1CCOCC1 [Example 424] | 0.58 | – | 0.37 | –
NC(=O)C1CCN(CCOc2ccc(Cc3ccccc3)cc2)C1 (stereo not drawn) [Example 425] | 0.36 | 60 | – | –
NC(=O)C1(O)CCN(CCOc2ccc(Cc3ccccc3)cc2)CC1 [Example 427] | – | 68 | 0.35 | –
O=C(Nc1ccccc1)OC[C@@H]1CCCN1CCOc1ccc(Cc2ccccc2)cc1 [Example 428] | – | 2 | 0.5 | –
O=C(O)C1CCN(CCOc2ccc(Cc3ccccc3)cc2)CC1 [Example 429] | – | – | 0.25 | inhibition in vivo at 10 mg/kg [2, 7]: 80%
CC(CN(C)CCCOc1ccc(Cc2ccccc2)cc1)C(=O)O (stereo not drawn) [Example 432] | – | 85 | 0.14 | –
O=C(O)C1C2CN(CCOc3ccc(Cc4ccccc4)cc3)CC21 (stereo not drawn) [Example 435] | – | – | 0.225 | IC50 ([1]; human whole blood, A23187): 0.086 µM
O=C(O)C1CCN(CCOc2ccc(Cc3cccs3)cc2)CC1 [Example 437] | – | – | 0.113 | IC50 ([1]; human whole blood, A23187): 0.693 µM
N/C(=N\O)C1CCN(CC2Cc3cc(Cc4ccccc4)ccc3O2)CC1 (stereo not drawn) [Example 446] | – | 70 | 0.035 | –
O=c1[nH]c(C2CCCN(CCOc3ccc(Cc4ccccc4)cc3)C2)no1 (stereo not drawn) [Example 448] | 0.825 | – | 0.82 | –
CC1CC(c2nnn[nH]2)CCN1CCOc1ccc(Cc2ccccc2)cc1 (stereo not drawn) [Example 451] | – | 90 | 0.006 | –
NC1CCN(CCOc2ccc(Cc3ccccc3)cc2)C1 (stereo not drawn) [Example 452] | 0.29 | 57 | – | –
O=C(CCl)NC1CCN(CCOc2ccc(Cc3ccccc3)cc2)C1 (stereo not drawn) [Example 454] | – | – | 0.14 | IC50 ([1]; human whole blood, A23187): 0.61 µM
NC1CCN(CCOc2ccc(Cc3ccccc3)cc2)CC1 [Example 455] | – | 67 | 0.011 | –
NC(=O)NC1CCN(CCOc2ccc(Cc3ccccc3)cc2)CC1 [Example 456] | 0.44 | 72 | – | –
NC(=O)N1CCN(CCOc2ccc(Cc3ccccc3)cc2)CC1 [Example 459] | 2.4 | 44 | – | –
c1ccc(Cc2ccc(OCCN3CC4CCC3C4)cc2)cc1 (stereo not drawn) [Example 499] | – | 60 | 0.24 | –
c1ccc(Cc2ccc(OCCN3CC4CCC3CC4)cc2)cc1 [Example 500] | – | 53 | 0.14 | –

Source: patent publication US6506876B1, “LTA4 hydrolase inhibitor pharmaceutical compositions and methods of use” (G.D. Searle & Co., priority 1994, dated 2003)
